Reference: patent US20170340690A1, “METHOD FOR IMPROVING INTESTINAL HEALTH USING EXTRACTS OF CODONOPSIS LANCEOLATA” (KOREA INSTITUTE OF SCIENCE AND TECHNOLOGY, priority 2016, published 2017)

How the values were obtained:
[1] = system: intestinal microorganisms; experiment: Measurement of growth of intestinal microorganisms (absorbance at 600 nm); type: cell-based, human; conditions: normal medium condition (FIG. 1), 37° C., 48 hours, extract 100 μg/mL, FOS 1 mg/mL, chloramphenicol 10 or 40 μg/mL
[2] = system: intestinal microorganisms; experiment: Gas chromatographic analysis of content of short-chain fatty acids in culture medium of intestinal microorganisms; type: cell-based, human; conditions: 48 hours, extract 100 μg/mL, FOS 1 mg/mL, chloramphenicol 10 or 40 μg/mL; for Content (mM) of short-chain fatty acids: non-treated control 18.6 mM
Description: The analysis sample was subjected to centrifugation of the 96-well plate at 3500 rpm for 10 minutes. 400 μL of the obtained supernatant was stabilized by adding 20 μL of 50% sulfuric acid and then 40 μL of an internal standard (1% 2-methylpentanoic acid) was added. Then, after adding 400 μL of ethyl ether, the mixture was mixed for about 2 minutes by vortexing. The sample was centrifuged and the top ethyl ether layer was recovered and subjected to GC analysis. The analysis was performed using Bruker 450-GC and the Supelco's Nukol Fused silica capillary column ([…]×0.25 mm×0.25 μm). The analysis condition is described in Table 4.

β-glucuronidase = conditions: enzymatic activity divided by OD600; 37° C., 48 hours anaerobic culture; extract 100 μg/mL, FOS 1 mg/mL, chloramphenicol 10 or 40 μg/mL (FIG. 3)
Description: The samples were transfered to an anaerobic workstation within 30 minutes and treated quickly. After adding glycerol as an additive for storage at low temperature, the mixtures were stored in an ultra-low temperature freezer with 40 mL each and were used as samples for culturing of intestinal microorganisms.
Each bioreactor containing 300 mL of a medium was sterilized and maintained at an anaerobic condition by injecting nitrogen gas. Then, the sample of intestinal microorganisms prepared in Test Example 1 was inoculated. After conducting batch culturing for 24 hours, continuous culturing was performed using a medium of the same composition. Total residence time was 24 hours. Culturing temperature was maintained at 37° C. and pH was maintained at 5.5 using a 1 N hydrochloric acid solution and a 1 N sodium hydroxide solution. […] The culturing condition was maintained for at least 30 days. […]
The culture medium of intestinal microorganisms incubated and maintained with a culture medium in a fermenter under an anaerobic condition. […] The supernatant was taken and absorbance was measured at 405 nm. Then, relative β-glucuronidase activity (%) was calculated by dividing the enzymatic activity by the degree of growth of intestinal microorganisms (OD600).

tryptophanase = conditions: enzymatic activity divided by OD600; 37° C., 48 hours anaerobic culture; extract 100 μg/mL, FOS 1 mg/mL, chloramphenicol 10 or 40 μg/mL (FIG. 4)
Description: In order to quickly evaluate the effect of the candidate materials on improvement of intestinal microflora, culturing was performed using a 96-well plate. 10 μL of the culture medium of intestinal microorganisms maintained stably through anaerobic continuous culturing was inoculated to 1 mL of a medium for investigation described in Table 3. Culturing was performed at 37° C. for 48 hours by treating an extract of Codonopsis lanceolata for evaluating the effect of improving intestinal microflora at a concentration of 100 μg/mL (0.2% DMSO). […] At the same time, chloramphenicol (10 or 40 μg/mL) which is an antibiotic known to worsen intestinal microflora was used to compare the effect of improving intestinal microflora. Then, the effect of improving intestinal microflora was investigated by measuring the growth of intestinal microorganisms, the enzymatic activity of harmful bacteria, the content of short-chain fatty acids, etc. using the culture medium of microorganisms.
The culture medium of intestinal microorganisms incubated and maintained with a culture medium in a fermenter under an anaerobic condition. […] The supernatant was taken and absorbance was measured at 550 nm. Then, relative tryptophanase activity (%) was calculated by dividing the enzymatic activity by the degree of growth of intestinal microorganisms (OD600).

Structure (SMILES): O=C(N[C@H](CO)[C@H](O)c1ccc([N+](=O)[O-])cc1)C(Cl)Cl [chloramphenicol]
- growth of intestinal microorganisms [1]: decreased growth of intestinal microorganisms
- Composition of short-chain fatty acids (%) Acetate [2]: 54.36 ± 3.23%
- Composition of short-chain fatty acids (%) Butyrate [2]: 20.24 ± 0.64%
- Composition of short-chain fatty acids (%) Propionate [2]: 25.40 ± 0.89%
- Content (mM) of short-chain fatty acids [2]: 2.03 mM
- Content (mM) of short-chain fatty acids ([2]; listed as Antibiotic (chloramphenicol)): 2.03 ± 0.06 mM
- relative β-glucuronidase activity (β-glucuronidase): increased β-glucuronidase activity
- relative tryptophanase activity (tryptophanase): increased tryptophanase activity
